One block for each compound: values may come before it. The source made the active and inactive calls. The calls are words filed in the database; no cut-off is given here.
Key:
Plasmodium berghei [1] = experiment: Antimalarial activity against GFP-transfected Plasmodium berghei strain ANKA infected in NMRI mouse assessed as reduction in parasitemia at 50 mg/kg, po administered as single dose measured on day 2 by FACS analysis; assay type: functional; parameters: scale not given: the % may be the effect or the level left
[2] = Metabolic stability in mouse liver microsomes assessed as intrinsic clearance per mg protein after 60 mins by LC-MS analysis; assay type: ADME, Microsome
[3] = Metabolic stability in human liver microsomes assessed as intrinsic clearance per mg protein after 60 mins by LC-MS analysis; assay type: ADME, Microsome
[4] = Metabolic stability in rat liver microsomes assessed as intrinsic clearance per mg protein after 60 mins by LC-MS analysis; assay type: ADME, Microsome
Plasmodium berghei [5] = experiment: Antimalarial activity against GFP-transfected Plasmodium berghei strain ANKA infected in NMRI mouse assessed as reduction in parasitemia at 50 mg/kg, po administered as single dose measured on day 3 by FACS analysis; assay type: functional; parameters: scale not given: the % may be the effect or the level left
Plasmodium berghei [6] = experiment: Antimalarial activity against GFP-transfected Plasmodium berghei strain ANKA infected in NMRI mouse assessed as reduction in parasitemia at 50 mg/kg, po administered as single dose measured on day 4 by FACS analysis; assay type: functional; parameters: scale not given: the % may be the effect or the level left
Plasmodium berghei [7] = experiment: Antimalarial activity against GFP-transfected Plasmodium berghei strain ANKA infected in NMRI mouse assessed as reduction in parasitemia at 50 mg/kg, po administered as single dose measured on day 5 by FACS analysis; assay type: functional; parameters: scale not given: the % may be the effect or the level left
Plasmodium berghei [8] = experiment: Antimalarial activity against GFP-transfected Plasmodium berghei strain ANKA infected in NMRI mouse assessed as reduction in parasitemia at 25 mg/kg, po administered as single dose measured on day 2 by FACS analysis; assay type: functional; parameters: scale not given: the % may be the effect or the level left
Plasmodium berghei [9] = experiment: Antimalarial activity against GFP-transfected Plasmodium berghei strain ANKA infected in NMRI mouse assessed as reduction in parasitemia at 25 mg/kg, po administered as single dose measured on day 3 by FACS analysis; assay type: functional; parameters: scale not given: the % may be the effect or the level left
Plasmodium berghei [10] = experiment: Antimalarial activity against GFP-transfected Plasmodium berghei strain ANKA infected in NMRI mouse assessed as reduction in parasitemia at 25 mg/kg, po administered as single dose measured on day 4 by FACS analysis; assay type: functional; parameters: scale not given: the % may be the effect or the level left
Plasmodium berghei [11] = experiment: Antimalarial activity against GFP-transfected Plasmodium berghei strain ANKA infected in NMRI mouse assessed as reduction in parasitemia at 25 mg/kg, po administered as single dose measured on day 5 by FACS analysis; assay type: functional; parameters: scale not given: the % may be the effect or the level left
[12] = Metabolic stability in human liver microsomes assessed as degradation half life after 60 mins by LC-MS analysis; assay type: ADME, Microsome
[13] = Metabolic stability in rat liver microsomes assessed as degradation half life after 60 mins by LC-MS analysis; assay type: ADME, Microsome
[14] = Metabolic stability in mouse liver microsomes assessed as degradation half life after 60 mins by LC-MS analysis; assay type: ADME, Microsome
Plasmodium berghei [15] = experiment: Antimalarial activity against GFP-transfected Plasmodium berghei strain ANKA infected in NMRI mouse assessed as increase in mean survival time at 25 mg/kg, po administered as single dose (reference value: 5 days )
Plasmodium berghei [16] = experiment: Antimalarial activity against GFP-transfected Plasmodium berghei strain ANKA infected in NMRI mouse assessed as increase in mean survival time at 50 mg/kg, po administered as single dose (reference value: 5 days )
Plasmodium falciparum [17] = experiment: microbe, parasite or virus in culture; conditions: W2, 48 h
Plasmodium falciparum [18] = experiment: microbe, parasite or virus in culture; conditions: HB3
Description: Antimalarial activity against Plasmodium falciparum HB3

Plasmodium falciparum [19] = experiment: microbe, parasite or virus in culture; conditions: NF54
Description: Antimalarial activity against Plasmodium falciparum NF54

Plasmodium falciparum [20] = experiment: microbe, parasite or virus in culture; conditions: FC27/Papua New Guinea
Description: Antimalarial activity against Plasmodium falciparum FC27

Plasmodium falciparum [21] = experiment: microbe, parasite or virus in culture; conditions: FCR-3/Gambia
Description: Antimalarial activity against Plasmodium falciparum FCR3

Plasmodium falciparum [22] = experiment: microbe, parasite or virus in culture; conditions: Mad20/Papua New Guinea
Description: Antimalarial activity against Plasmodium falciparum Mad20

Plasmodium falciparum [23] = experiment: microbe, parasite or virus in culture; conditions: K1
Description: Antimalarial activity against Plasmodium falciparum K1

L6 = experiment: Cytotoxicity at rat L6 cells after 72 hrs by microplate alamar blue assay; assay type: cell-based
Plasmodium berghei [24] = experiment: Antimalarial activity against GFP-transfected Plasmodium berghei strain ANKA infected in NMRI mouse assessed as reduction in parasitemia at 50 mg/kg/day, ip administered for 4 consecutive days measured 24 hrs after last treatment by FACS analysis relative to control; assay type: functional; parameters: scale not given: the % may be the effect or the level left; conditions: route intraperitoneal
Plasmodium berghei [25] = experiment: Antimalarial activity against GFP-transfected Plasmodium berghei strain ANKA infected in NMRI mouse assessed as increase in median survival time at 50 mg/kg/day, ip administered for 4 days measured up to 30 days post infection (reference value: 5 to 7 days); assay type: functional; conditions: route intraperitoneal
Plasmodium berghei [26] = experiment: Antimalarial activity against GFP-transfected Plasmodium berghei strain ANKA infected in NMRI mouse assessed as reduction in parasitemia at 100 mg/kg/day, po administered for 4 consecutive days measured 24 hrs after last treatment by FACS analysis relative to control; assay type: functional; parameters: scale not given: the % may be the effect or the level left
Plasmodium berghei [27] = experiment: Antimalarial activity against GFP-transfected Plasmodium berghei strain ANKA infected in NMRI mouse assessed as increase in median survival time at 100 mg/kg/day, po administered for 4 days measured up to 30 days post infection (reference value: 5 to 7 days); assay type: functional
Plasmodium falciparum [28] = system: Plasmodium falciparum
Description: (§1) Antimalarial activity against multidrug-resistant Plasmodium falciparum K1 infected in human red blood cells assessed as 3H-hypoxanthine incorporation after 48 hrs by liquid scintillation counting

[29] = Selectivity index, ratio IC50 for rat L6 cells to IC50 for multidrug-resistant Plasmodium falciparum K1 infected in human red blood cells; assay type: functional
Plasmodium falciparum [30] = experiment: Ratio IC50 for chloroquine to compound for multidrug-resistant Plasmodium falciparum K1; assay type: functional
[31] = Distribution coefficient, log D of the compound at pH 7.4; assay type: physicochemical; conditions: octanol/water
Plasmodium falciparum [32] = experiment: microbe, parasite or virus in culture; conditions: K1; remark: listed apart in the source
Description: as §1

Plasmodium berghei [33] = experiment: Antimalarial activity against GFP-transfected Plasmodium berghei strain ANKA infected in NMRI mouse assessed as complete cure from parasite infection at 3 to 50 mg/kg, po administered as multiple dose for 4 days measured 24 hrs after last treatment; assay type: functional, organism-based
Plasmodium falciparum [34] = experiment: Antimalarial activity against Plasmodium falciparum GHA; assay type: functional, organism-based
Plasmodium falciparum [35] = experiment: Antimalarial activity against Plasmodium falciparum W2; assay type: functional, organism-based

SMILES: Cl.N#Cc1c(-c2ccc(C(F)(F)F)cc2)cc(NCCN2CCCC2)n2c1nc1ccccc12
Activity (Plasmodium berghei [1]): 14.04% | microsomal CLint [2]: 25.6 µL/min/mg | microsomal CLint [3]: 88.4 µL/min/mg | microsomal CLint [4]: 25.8 µL/min/mg | Activity (Plasmodium berghei [5]): 47.92% | Activity (Plasmodium berghei [6]): 73.01% | Activity (Plasmodium berghei [7]): 88.53% | Activity (Plasmodium berghei [8]): 14.75% | Activity (Plasmodium berghei [9]): 43.2% | Activity (Plasmodium berghei [10]): 63.73% | Activity (Plasmodium berghei [11]): 63.72% | half-life [12]: 0.327 h | half-life [13]: 1.12 h | half-life [14]: 1.13 h | MSD (Plasmodium berghei [15]): 7.7 days | MSD (Plasmodium berghei [16]): 5 days

SMILES: CCc1nc(N)nc(N)c1-c1ccc(Cl)cc1 [PYRIMETHAMINE]
IC50 (Plasmodium falciparum [17]): 29500 nM | IC50 (Plasmodium falciparum [18]): 1150 nM | IC50 (Plasmodium falciparum [19]): 19 nM | IC50 (Plasmodium falciparum [20]): < 60 nM | IC50 (Plasmodium falciparum [21]): 12 nM | IC50 (Plasmodium falciparum [22]): < 60 nM | IC50 (Plasmodium falciparum [23]): 9900 nM

SMILES: CCN(CC)CCNc1cc(-c2ccc(C(F)(F)F)cc2)c(C#N)c2nc3ccccc3n12.CS(=O)(=O)O
IC50 (L6; l6): 124000 nM | Activity (Plasmodium berghei [24]): 95.2% | MSD (Plasmodium berghei [25]): 11 days | Activity (Plasmodium berghei [26]): 97.4% | MSD (Plasmodium berghei [27]): 11 days | IC50 (Plasmodium falciparum [28]): 90 nM

SMILES: CCN(CC)CCNc1cc(-c2ccc(C(F)(F)F)cc2)c(C#N)c2nc3ccccc3n12
Ratio IC50 [29]: 612 | IC50 (L6; l6): 28800 nM | Ratio IC50 (Plasmodium falciparum [30]): 3.5 | logD [31]: 2.94 | IC50 (Plasmodium falciparum [32]): 47 nM | IC50 (Plasmodium falciparum [17]): 84 nM | IC50 (Plasmodium falciparum [18]): 60 nM | IC50 (Plasmodium falciparum [19]): 110 nM | IC50 (Plasmodium falciparum [20]): 175 nM | IC50 (Plasmodium falciparum [21]): 137 nM | IC50 (Plasmodium falciparum [22]): 104 nM | IC50 (Plasmodium falciparum [23]): 47 nM

SMILES: CCNCCNc1cc(-c2ccc(C(F)(F)F)cc2)c(C#N)c2nc3ccccc3n12 [listing 1 of 2 here]
Activity (Plasmodium berghei [33]): inactive

IC50 (Plasmodium falciparum [34]): 170 nM | IC50 (Plasmodium falciparum [35]): 170 nM | IC50 (Plasmodium falciparum [23]): 170 nM
SMILES: N#Cc1c(-c2ccccc2)cc(N2CCNCC2)n2c1nc1ccccc12

SMILES: CCNCCNc1cc(-c2ccc(C(F)(F)F)cc2)c(C#N)c2nc3ccccc3n12 [listing 2 of 2 here]
Ratio IC50 [29]: 20.5 | IC50 (L6; Rattus norvegicus, L6, 72 h): 2460 nM | logD [31]: 2.01 | IC50 (Plasmodium falciparum [32]): 120 nM | IC50 (Plasmodium falciparum [17]): 123 nM | IC50 (Plasmodium falciparum [18]): 90 nM | IC50 (Plasmodium falciparum [19]): 110 nM | IC50 (Plasmodium falciparum [20]): 110 nM | IC50 (Plasmodium falciparum [21]): 154 nM | IC50 (Plasmodium falciparum [22]): 106 nM | IC50 (Plasmodium falciparum [23]): 116 nM

SMILES: N#Cc1c(-c2ccccc2)cc(NCCN)n2c1nc1ccccc12
Ratio IC50 [29]: 4.2 | IC50 (L6; Rattus norvegicus, L6, 72 h): 18900 nM | Ratio IC50 (Plasmodium falciparum [30]): 22 | logD [31]: 0.83 | IC50 (Plasmodium falciparum [32]): 4480 nM

SMILES: Cl.N#Cc1c(-c2ccc(C(F)(F)F)cc2)cc(NCCN2CCCCC2)n2c1nc1ccccc12
microsomal CLint [2]: 29.1 µL/min/mg | microsomal CLint [3]: 45.8 µL/min/mg | microsomal CLint [4]: 27 µL/min/mg | Activity (Plasmodium berghei [8]): 28.44% | Activity (Plasmodium berghei [9]): 28.07% | Activity (Plasmodium berghei [10]): 38.72% | Activity (Plasmodium berghei [11]): 46.41% | half-life [12]: 0.632 h | half-life [13]: 1.07 h | half-life [14]: 0.992 h | MSD (Plasmodium berghei [15]): 12.7 days

SMILES: CCN(CC)CCCNc1cc(-c2ccc(C(F)(F)F)cc2)c(C#N)c2nc3ccccc3n12.Cl
IC50 (L6; l6): 2230 nM | Activity (Plasmodium berghei [24]): 72.6% | MSD (Plasmodium berghei [25]): 9 days | Activity (Plasmodium berghei [26]): 93.4% | MSD (Plasmodium berghei [27]): 11 days | IC50 (Plasmodium falciparum [28]): 160 nM

SMILES: CN(C)CCNc1cc(-c2ccc(C(F)(F)F)cc2)c(C#N)c2nc3ccccc3n12.CS(=O)(=O)O
IC50 (L6; l6): > 175000 nM | Activity (Plasmodium berghei [24]): 94.1% | MSD (Plasmodium berghei [25]): 11 days | Activity (Plasmodium berghei [26]): 96.8% | MSD (Plasmodium berghei [27]): 13.7 days | IC50 (Plasmodium falciparum [28]): 140 nM

Source: ChEMBL document CHEMBL1799932, “Antimalarial pyrido[1,2-a]benzimidazoles” (J Med Chem, 2011)
